Laboratory results: patent US20020137779A1, “Use of L-2-oxothiazolidine-4-carboxylic acid for the treatment of type 2 diabetes” (Advanced Biochemicals Inc., priority 2001, published 2002)

Key:
Assay type in all cases: in vivo, mouse
[1] = tested on: type 2 diabetes mice (C57BL/KsJ-db/db Jcl); experiment: serum insulin after a single oral dose and glucose loading (Example 2); conditions: for Conc. of insulin: glucose 1 g/kg i.p. after 5 hours, serum 30 minutes later
Experimental: Second step; Determining optimum L-2-oxothiazolidine-4-carboxylic acid concentration which is appropriate for enhancing insulin secretion and lowering blood glucose levels in a type 2 diabetes mouse, by administering 0-400 mg/kg of L-2-oxothiazolidine-4-carboxylic acid orally,
The present example is to show an appropriate concentration of L-2-oxothiazolidine-4-carboxylic acid for the purpose of improving the ability of insulin secretion and lowering blood glucose levels, by varying the concentrations of L-2-oxothiazolidine-4-carboxylic acid in a single oral dose to type 2 diabetes mice.
The present inventors ascertained the effect of various concentrations of L-2-oxothiazolidine-4-carboxylic acid on lowering blood glucose level and insulin secretion. in which experiments enough sterilized-feed and water was given to 6 week old C57BL mice(Samtako, purchased from Clea, Japan) in the light condition of 12L: 12D for a week, bred the mice in the incubator of A.B.J Co.(Building 1 Chonbuk National University Medical School, Chonju, Korea) for a week, and no feed but water was given to the mice for 13 hours before insulin and glucose levels were measured.
0.2 ml of PBS (pH 7.4) was orally given to the control group(5 mice) using feeding needle, and 1.5-400 mg/kg of L-2-oxothiazolidine-4-carboxylic acid, dissolved in 0.2 ml of PBS and its pH was adjusted to 7.2 with 3 N NaOH(Junsei, Japan), was orally administered to experimental group(5 mice). After 5 hours of the drug administration, glucose(Sigma, USA) was injected intraperitoneally at the concentration of 1 g/kg, and incubated the mice for 30 minutes. Immediately after the mice were anesthetized with ether, the thoraces of the mice was incised to take blood, serum was isolated, and the insulin concentration of the mice-serum was measured by radioimmunoassay using rat insulin assay kit(Amersham Pharmacia Bio Co., USA).

[2] = tested on: type 2 diabetes mice (C57BL/KsJ-db/db Jcl); experiment: blood glucose levels after glucose intake, single oral administration (Example 3); conditions: for blood glucose level / decrease of blood glucose level vs control group: 30 min after glucose intake
Experimental: Third step; Determining the abilities of lowering blood glucose level and increasing insulin secretion ability following glucose loading, by administering a single dose of 8-80 mg/kg of L-2-oxothiazolidine-4-carboxylic acid to a type 2 diabetes mouse, Fourth step; Examining the effect of long term administration of L-2-oxothiazolidine-4-carboxylic acid on lowering blood glucose levels,
Under the same breeding condition as in EXAMPLE 2, no feed but water was given to 7 week old type 2 diabetes mice (C57BL/KsJ-db/db Jel, Clea, Japan) for 13 hours. 0.2 ml of PBS was orally given to the control group(5 mice) using feeding needle, and 8-80 mg/kg of L-2-oxothiazolidine-4-carboxylic acid dissolved in 0.2 ml of PBS was orally administered to the experimental group(5 mice). After 5 hours of drug administration, 1 g/kg of glucose (Sigma, USA) was intraperitoneally injected and the mice were maintained for 30 to 120 minutes. The blood glucose levels of type 2 diabetes mice at various time points were measured by the glucose oxidase method using a glucose analyzer(One-touch Basic, Lifescan, USA), and serum insulin levels were determined using a radioimmunoassay, as described in EXAMPLE 2.

[3] = tested on: type 2 diabetes mice (C57BL/KsJ-db/db Jcl); experiment: blood glucose levels after oral administration for 1-4 weeks (Example 4); conditions: for duration of the blood glucose lowering effect: after glucose intake
Experimental: The chemical L-2-oxothiazolidine-4-carboxylic acid was orally administered to diabetes mice(C57BL/KsJ-db/db Jcl) with a single dose of 3.0-400 mg/kg once in the state of empty stomach or 40-80 mg/kg twice a day for 1-4 weeks continuously.
(§1) Seven week old type 2 diabetes mice were maintained as in EXAMPLE 2. 0.2 ml of PBS (pH 7.4) was given to a control group twice a day for 1-4 weeks, and 40-80 mg/kg of L-2-oxothiazolidine-4-carboxylic acid dissolved in 0.2 ml of PBS of which pH was adjusted to 7.4 with 3 N NaOH(Junsei, Japan) was orally administered to an experimental group.
The results of blood glucose levels shown in FIG. 7 were obtained, after 40-80 mg/kg of L-2-oxothiazolidine-4-carboxylic acid was administered to type 2 diabetes mice twice a day for two weeks and after glucose was subsequently given, as described in […]

[4] = body weight during four weeks of oral administration (Example 4); conditions: 40-80 mg/kg orally for four weeks; measured at one, two and four week points
Experimental: as §1

[5] = tested on: type 2 diabetes mice (C57BL/KsJ-db/db Jcl); experiment: blood insulin concentration after oral administration for four weeks (Example 5); conditions: 80 mg/kg per day for four weeks
Experimental: Fifth step Determining the ability of insulin secretion after oral administration of L-2-oxothiazolidine-4-carboxylic acid for 4 weeks to a 7 week old type 2 diabetes mouse, and
Seven week old type 2 diabetes mice were maintained as in EXAMPLE 2. 0.2 ml of PBS (pH 7.4) was given to a control group(4 mice) twice a day for four weeks, and 80 mg/kg of L-2-oxothiazolidine-4-carboxylic acid dissolved in 0.2 ml of PBS of which pH was adjusted to 7.4 with 3 N NaOH(Junsei, Japan), was orally administered to an experimental group(4 mice). Five hours after the drug was finally administered, 1 g/kg of glucose was intraperitoneally injected. Tails were cut, blood samples were taken from the tails at 60 min. time intervals until 180 min., the samples were left at room temperature for three hours, sera were collected, and the insulin concentration was measured by radioimmunoassay.

[6] = 40 mg/kg for one week, 60 min after glucose intake
[7] = 40 mg/kg for two weeks, 60 min after glucose addition
[8] = 40 mg/kg for two weeks, 120 min after glucose intake
[9] = 80 mg/kg for four weeks, 120 min after glucose intake
[10] = 80 mg/kg for four weeks, fasted state (13 hours)
[11] = 80 mg/kg for one week, 60 min after glucose intake
[12] = 80 mg/kg for one week, 120 min after glucose intake
[13] = 80 mg/kg for one week, fasted state (13 hours)
[14] = 80 mg/kg for two weeks, 60 min after glucose addition
[15] = 80 mg/kg for two weeks, 120 min after glucose intake

O=C1NC(C(=O)O)CS1 [OTC, L-2-oxothiazolidine-4-carboxylic acid]
insulin secretion ability compared to the control group ([1]; 3-20 mg/kg single oral dose, p<0.05): improvement of insulin secretion ability | insulin secretion ability compared to the control group ([1]; 40-160 mg/kg single oral dose, p<0.001): more than 2 times | Conc. of insulin ([1]; OTC 1.5 mg/kg single oral dose): 878 pmol/L | Conc. of insulin ([1]; OTC 3 mg/kg single oral dose): 908 pmol/L | Conc. of insulin ([1]; OTC 10 mg/kg single oral dose): 1103 pmol/L | Conc. of insulin ([1]; OTC 20 mg/kg single oral dose): 1,205 pmol/l | Conc. of insulin ([1]; OTC 40 mg/kg single oral dose): 1,535 pmol/l | Conc. of insulin ([1]; OTC 80 mg/kg single oral dose): 1,750 pmol/l | Conc. of insulin ([1]; OTC 160 mg/kg single oral dose): 1684 pmol/L | Conc. of insulin ([1]; OTC 400 mg/kg single oral dose): 1350 pmol/L | insulin secretion ability compared to the control group ([1]; over 400 mg/kg single oral dose, p<0.005): salient improvement of insulin secretion ability | blood glucose level ([2]; 40 mg/kg single oral dose): 295 ± 8.5 mg/dL | decrease of blood glucose level vs control group ([2]; 40 mg/kg single oral dose): 34.27% | blood glucose level ([2]; 80 mg/kg single oral dose): 269 ± 6.85 mg/dL | decrease of blood glucose level vs control group ([2]; 80 mg/kg single oral dose): 40.01% | duration of the lowering effect of blood glucose levels after the intake of glucose ([2]; 40-80 mg/kg single oral dose): about 60 min | blood glucose level ([3]; 40 mg/kg for four weeks, 180 min after glucose intake): 50.50 ± 44.21 mg/dL | blood glucose level [3, 6]: 507.50 ± 52.81 mg/dL | decrease of blood glucose level vs control group [3, 6]: 16.8% | blood glucose level [3, 7]: 699.00 ± 58.91 mg/dL | lowering effect of blood glucose levels compared to the control group [3, 7]: 15.83% | blood glucose level [3, 8]: 599.50 ± 52.46 mg/dL | lowering effect of blood glucose levels compared to the control group [3, 8]: 22.2% | blood glucose level ([3]; 40 mg/kg for two weeks, fasted for 13 hours): 306.30 ± 24.06 mg/dL | blood glucose level [3, 9]: 539 ± 23.60 mg/dL | lowering effect of blood glucose levels compared to the control group [3, 9]: 38.8% | blood glucose level [3, 10]: 297.00 ± 26.51 mg/dL | more effective in lowering blood glucose levels than the control group [3, 10]: 32.5% | blood glucose level [3, 11]: 277.50 ± 40.89 mg/dL | decrease of blood glucose level vs control group [3, 11]: 54.51% | blood glucose level [3, 12]: 158.00 ± 28.33 mg/dL | decrease of blood glucose level vs control group [3, 12]: 72.11% | blood glucose level [3, 13]: 116.00 ± 119.74 mg/dL | blood glucose level relative to the control group [3, 13]: 52.07% | blood glucose level [3, 14]: 477.50 ± 58.91 mg/dL | blood glucose level relative to the control group [3, 14]: 42.50% | blood glucose level [3, 15]: 398.00 ± 28.33 mg/dL | lowering effect of blood glucose levels compared to the control group [3, 15]: 48.81% | blood glucose level ([3]; 80 mg/kg for two weeks, fasted for 13 hours): 301.50 ± 12.2 mg/dL | duration of the blood glucose lowering effect ([3]; 40-80 mg/kg for four weeks): about 180 min | duration of the blood glucose lowering effect ([3]; 40-80 mg/kg for one week): about 180 minutes | duration of the blood glucose lowering effect ([3]; 40-80 mg/kg for two weeks): about 180 min | increase of lowering effect of blood glucose levels compared to the control group ([3]; 40-80 mg/kg for two weeks, fasted for 13 hours): 11.5% | weight of the mice [4]: no weight difference | duration of the effect on insulin concentration [5]: about 120 min | insulin concentration ([5]; 120 min after glucose intake): 1285.04 ± 135.60 pmol/L | increase of insulin concentration compared to the control group ([5]; after 120 min): 4.93 times | insulin concentration ([5]; fasted state): 450 ± 43.50 pmol/L
